Values of other authors, collected in patent US6461591B1, “Medical aerosol formulations” (Jago Research AG, priority 1997, dated 2002).

Conditions: at 20° C.

Row | SMILES | vapour pressure | density
1 | FCC(F)(F)F [HFA 134a, 1,1,1,2-tetrafluoroethane] | about 6 bar | 
2 | FC(C(F)(F)F)C(F)(F)F [HFA 227, 1,1,1,2,3,3,3-heptafluoropropane] | about 4.2 bar | about 1.4 mg/ml
